Data from patent US10800741B2 (ANCUREALL PHARMACEUTICAL (SHANGHAI) CO., LTD., priority 2017, dated 2020).

What was measured:
[1] = tested on: KATO III (FGFR2 amp); assay: In vitro growth inhibition of KATO III tumor cells (MTT/CCK8); format: cell-based, Human; details: Homo sapiens, KATO III; in vitro growth inhibition (or induction of apoptosis), cells cultured 3 to 5 days, MTT (CCK8); read-out: IC50 KATO III (FGFR2 amp)
[2] = tested on: KCL-22 (BCR-ABL); assay: In vitro growth inhibition of KCL-22 tumor cells (MTT/CCK8); format: cell-based, Human; details: Homo sapiens, KCL-22; in vitro growth inhibition (or induction of apoptosis), cells cultured 3 to 5 days, MTT (CCK8); read-out: IC50 KCL-22 (BCR-ABL)
[3] = tested on: MFM-223; assay: In vitro growth inhibition of MFM-223 cells; format: cell-based; details: Homo sapiens, PI3KCA H1047R, FGFR1 amp, FGFR2 amp
Protocol: (§1) Adherent cells were digested with 0.25% trypsin-EDTA (Gibco). Suspension culture cells were collected by centrifugation (1700 rpm, 3 minutes). The supernatant was discarded and the cells were counted. According to each cell growth cycle, different concentrations of cells were prepared (5˜10×10^4 cells per ml), and inoculated to 96-well plates (Corning), with 100 μl per well, and incubated overnight at 37° C., 5% CO2. The next day, the test compound was added to the cultured cells (2 wells in parallel). The final concentration of the solvent was less than 1/1,000. The cells were further cultured for 3 to 5 days and assayed by MTT.
(§2) The MTT test reagent was a Dojindo CCK8 kit and the Microplate Reader was a THERMO […] FC instrument.
(§3) The adherent cells were taken out from the cell culture medium, and immediately added to a freshly prepared complete medium containing 10% CCK8 (5% FBS), 100 ul per hole. The suspended cells were directly added to a CCK8 reagent until reaching a final concentration of 10% and cultured for 1 to 4 hours. When a dark yellow color could be observed in the solvent control wells, the absorbance value at OD450 nm was measured and the cell growth rate was calculated according to the following formula: Cell Growth Rate (%)=100×(T−T0)/(C−T0)
(§4) T=optical density of drug-treated cell wells−optical density of blank control wells; T0=optical density of cell wells before drug treatment−optical density of blank control wells; C=optical density of solvent control wells−optical density of blank control wells. […] The experiments were repeated 1 to 3 times and a statistical analysis of data was conducted.
(§5) Mutations in the FGFR1-4 gene often occur in different types of cancer patients. In order to test the growth inhibition activity of the present compound against tumor cells expressing different FGFR variants, tumor cell lines expressing representative FGFR1-4 were selected for further determining the activity of compounds 25, 66, 38 and 95 of the present invention. BGJ398, a selective inhibitor of FGFR1-4, was used as the control compound. The specific test method is the same as test example 1.

[4] = tested on: Hep3B2 (FGFR3/4+++); assay: In vitro growth inhibition of Hep3B2 tumor cells (MTT/CCK8); format: cell-based, Human; details: Homo sapiens, Hep3B; in vitro growth inhibition (or induction of apoptosis), cells cultured 3 to 5 days, MTT (CCK8); read-out: IC50 Hep3B2 (FGFR3/4+++)
[5] = tested on: Karpas 299 (NPM-ALK); assay: In vitro growth inhibition of Karpas 299 tumor cells (MTT/CCK8); format: cell-based, Human; details: Homo sapiens, KARPAS-299; in vitro growth inhibition (or induction of apoptosis), cells cultured 3 to 5 days, MTT (CCK8); read-out: IC50 Karpas 299 (NPM-ALK)
[6] = tested on: H1703 (PDGFRa amp); assay: In vitro growth inhibition of H1703 tumor cells (MTT/CCK8); format: cell-based, Human; details: Homo sapiens, NCI-H1703; in vitro growth inhibition (or induction of apoptosis), cells cultured 3 to 5 days, MTT (CCK8); read-out: IC50 H1703 (PDGFRa amp)
[7] = tested on: DMS114; assay: In vitro growth inhibition of DMS114 cells; format: cell-based; details: Homo sapiens, DMS-114, FGFR1 amp
Protocol: as §1, §2, §3, §4, §5

[8] = tested on: JHH-7; assay: In vitro growth inhibition of JHH-7 cells; format: cell-based; details: Homo sapiens, JHH7, FGFR3+++, FGFR4 +++
Protocol: as §1, §2, §3, §4, §5

[9] = tested on: H1581 (FGFR1 amp); assay: In vitro growth inhibition of H1581 tumor cells (MTT/CCK8); format: cell-based, Human; details: Homo sapiens, NCI-H1581; in vitro growth inhibition (or induction of apoptosis), cells cultured 3 to 5 days, MTT (CCK8); read-out: IC50 H1581 (FGFR1 amp)
[10] = tested on: Cal-120; assay: In vitro growth inhibition of Cal-120 cells; format: cell-based; details: Homo sapiens, FGFR1 amp
Protocol: as §1, §2, §3, §4, §5

[11] = tested on: Huh-7; assay: In vitro growth inhibition of Huh-7 cells; format: cell-based; details: Homo sapiens, FGFR3+++, FGFR4 +++
Protocol: as §1, §2, §3, §4, §5

[12] = tested on: Kasumi-1 (KIT N822K); assay: In vitro growth inhibition of Kasumi-1 tumor cells (MTT/CCK8); format: cell-based, Human; details: Homo sapiens, Kasumi 1; in vitro growth inhibition (or induction of apoptosis), cells cultured 3 to 5 days, MTT (CCK8); read-out: IC50 Kasumi-1 (KIT N822K)
[13] = tested on: MDA-MB-453; assay: In vitro growth inhibition of MDA-MB-453 cells; format: cell-based; details: Homo sapiens, PI3KCA H1047R, FGFR4+++/Y367C
Protocol: as §1, §2, §3, §4, §5

[14] = tested on: SNU-16; assay: In vitro growth inhibition of SNU-16 cells; format: cell-based; details: Homo sapiens, FGFR2 amp
Protocol: as §1, §2, §3, §4, §5

[15] = tested on: RT112/84; assay: In vitro growth inhibition of RT112/84 cells; format: cell-based; details: Homo sapiens, FGFR3-TACC3
Protocol: as §1, §2, §3, §4, §5

[16] = tested on: A375; assay: In vitro growth inhibition of A375 cells; format: cell-based; details: Homo sapiens, A-375, BRAF V600E, FGFR2 mutant
Protocol: as §1, §2, §3, §4, §5

[17] = tested on: JIMT-1; assay: In vitro growth inhibition of JIMT-1 cells; format: cell-based; details: Homo sapiens, FGFR1 amp, HER2 amp, PI3KCA C420R
Protocol: as §1, §2, §3, §4, §5

[18] = tested on: AN3-CA; assay: In vitro growth inhibition of AN3-CA cells; format: cell-based; details: Homo sapiens, FGFR2 mutant
Protocol: as §1, §2, §3, §4, §5

[19] = tested on: MOLM-13 (FLT3-ITD); assay: In vitro growth inhibition of MOLM-13 tumor cells (MTT/CCK8); format: cell-based, Human; details: Homo sapiens, MOLM-13; in vitro growth inhibition (or induction of apoptosis), cells cultured 3 to 5 days, MTT (CCK8); read-out: IC50 MOLM-13 (FLT3-ITD)
[20] = tested on: RS4:11; assay: In vitro growth inhibition of FLT3 wild type overexpressing cells RS4:11; format: cell-based; details: Homo sapiens, cells over expressing FLT3 wild-type
Protocol: as §1, §2, §3, §4
(§6) The present compounds which has a high growth inhibition activity on tumor cells positive expressing FLT3-ITD were selected for the determination of IC50 concentration on FLT3 wild tyoverexpressing cells RS4:11 and FLT3 wild-type normal expressing cells Jurkat. The specific test method is the same as that of test example 1.

[21] = tested on: Jurkat; assay: In vitro growth inhibition of FLT3 wild-type normal expressing cells Jurkat; format: cell-based; details: Homo sapiens, cells normally expressing FLT3 wild-type
Protocol: as §1, §2, §3, §4, §6

Row | SMILES | IC50 [1] | IC50 [2] | IC50 [4] | IC50 [5] | IC50 [6] | IC50 [9] | IC50 [12] | IC50 [19] | IC50 [20] | IC50 [21] | other results
1 | CCN1CCN(c2ccc(Nc3cc(N(C)C(=O)Nc4c(Cl)c(OC)cc(OC)c4Cl)ncn3)cc2)CC1 [BGJ398, reference compound] | 0.461 nM | > 1000 nM | 38.9 nM | > 1000 nM | > 1000 nM | 6.97 nM | > 1000 nM |  |  |  | IC50 [3]: > 1000 nM; IC50 [7]: 6.97 nM; IC50 [8]: 31.8 nM; IC50 [10]: > 1000 nM; IC50 [11]: 30.9 nM; IC50 [13]: > 1000 nM; IC50 [14]: 2.18 nM; IC50 [15]: 8.12 nM; IC50 [16]: > 1000 nM; IC50 [17]: > 1000 nM; IC50 [18]: 62.1 nM
2 | COc1cc2nccc(Oc3ccc(NC(=O)Nc4cc(C(C)(C)C)on4)cc3)c2cc1C(N)=O [Compound 1, 4-{4-[3-(5-tert-butyl-isoxazol-3-yl)-ureido]-phenoxy}-7-methoxyquinolin-6-carboxamide] | 1.28 nM | 64.7 nM | 282 nM | 394 nM | 9.45 nM | 16.1 nM | 90.1 nM | < 0.05 nM | 188 nM | 521 nM | 
3 | COc1cc2nccc(Oc3ccc(NC(=O)Nc4cc(C(C)(C)C)on4)cc3Br)c2cc1C(N)=O [Compound 7, 4-{2-Bromo-4-[3-(5-tert-butyl-isoxazol-3-yl)-ureido]-phenoxy}-7-methoxyquinolin-6-carboxamide] | 6.33 nM | 19.8 nM | 83.9 nM | 187 nM | 19.4 nM | 55.4 nM | 46 nM | < 0.05 nM | 375 nM | 302 nM | 
4 | COc1cc2nccc(Oc3ccc(NC(=O)Nc4cc(C(C)(C)C)on4)cc3Cl)c2cc1C(N)=O [Compound 8, 4-{4-[3-(5-tert-butyl-isoxazol-3-yl)-ureido]-2-chloro-phenoxy}-7-methoxyquinolin-6-carboxamide] | 2.93 nM | 18.7 nM | 45.6 nM | 142 nM | 17.5 nM | 19.5 nM | 35.1 nM | < 0.05 nM | 370 nM | 288 nM | 
5 | COc1cc2nccc(Oc3ccc(NC(=O)Nc4cc(C(C)(C)C)on4)cc3F)c2cc1C(N)=O [Compound 9, 4-{4-[3-(5-tert-butyl-isoxazol-3-yl)-ureido]-2-fluoro-phenoxy}-7-methoxyquinolin-6-carboxamide] | 1.39 nM | 35.8 nM | 47.6 nM | 352 nM | 18.5 nM | 9.59 nM | 144 nM | < 0.05 nM | 750 nM | 409 nM | 
6 | COc1cc2nccc(Oc3ccc(NC(=O)Nc4cc(C(C)(C)C)on4)cn3)c2cc1C(N)=O [Compound 24, 4-{5-[3-(5-tert-butyl-isoxazol-3-yl)-ureido]-pyridin-2-yloxy}-7-methoxyquinolin-6-carboxamide] | 31 nM | > 1000 nM | 346 nM | 764 nM | 83.5 nM | 493 nM | > 1000 nM | 0.99 nM | > 1000 nM | 572 nM | 
7 | COc1cc2nccc(Oc3ccc(NC(=O)Nc4cc(C(C)(C)C)n[nH]4)cc3C)c2cc1C(N)=O [Compound 35, 4-{4-[3-(5-tert-butyl-2H-pyrazol-3-yl)-ureido]-2-methyl-phenoxy}-7-methoxyquinolin-6-carboxamide] | 4.45 nM | 16.8 nM | 166 nM | 393 nM | 106 nM | 105 nM | 7.32 nM | < 0.05 nM | > 1000 nM | 429 nM | 
8 | COc1cc2nccc(Oc3ccc(NC(=O)Nc4cc(C(C)(C)C)n[nH]4)cc3Cl)c2cc1C(N)=O [Compound 36, 4-{4-[3-(5-tert-butyl-2H-pyrazol-3-yl)-ureido]-2-chloro-phenoxy}-7-methoxyquinolin-6-carboxamide] | 2.62 nM | 31.5 nM | 78.9 nM | 179 nM | 227 nM | 65.7 nM | 70.8 nM | < 0.05 nM | 750 nM | 535 nM | 
9 | COc1cc2nccc(Oc3ccc(NC(=O)Nc4cc(C(C)(C)C)n[nH]4)c(Cl)c3Cl)c2cc1C(N)=O [Compound 37, 4-{4-[3-(5-tert-butyl-2H-pyrazol-3-yl)-ureido]-2,3-dichloro-phenoxy}-7-methoxyquinolin-6-carboxamide] | 0.19 nM | 0.498 nM | 9.6 nM | 52.3 nM | 6.44 nM | 4.73 nM | 2.05 nM | 0.97 nM | 139 nM | 408 nM | 
10 | CNC(=O)c1cc2c(Oc3ccc(NC(=O)Nc4cc(C(C)(C)C)n[nH]4)cc3C)ccnc2cc1OC [Compound 52, 4-{4-[3-(5-tert-butyl-2H-pyrazol-3-yl)-ureido]-2-methyl-phenoxy}-7-methoxyquinolin-6-carboxylate acid methylamide] | 3.28 nM | 7.11 nM | 175 nM | 203 nM | 62.4 nM | 107 nM | 3.83 nM | 0.06 nM | > 1000 nM | > 1000 nM | 
11 | COc1cc2nccc(Oc3ccc(NC(=O)Nc4cc(C(C)(C)C)n[nH]4)cc3F)c2cc1NC(C)=O [Compound 102, N-(4-{4-[3-(5-tert-butyl-2H-pyrazol-3-yl)-ureido]-2-fluoro-phenoxy}-7-methoxy-quinolin-6-yl)-acetamide] | 1.32 nM | 10.2 nM | 75.8 nM | > 1000 nM | 71.2 nM | 8.39 nM | 97.5 nM | < 0.05 nM | 500 nM |  | 
